The record followed here is ChEMBL document CHEMBL1201862, “PubChem BioAssay data set” (2004).

Some test systems named below: HT-29; TK-10; A549; SR; SK-MEL-5; SW-620; SN12C; SF-295; K562; OVCAR-4; NCI-H226; A498; SF-539; EKVX; MOLT-4; CCRF-CEM; MDA-MB-231; MCF7; BT-549; DU-145.
Test in all cases: DTP human tumour cell line panel, 48 h

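48-hour exposure; five concentrations; linearly interpolated endpoints. Here, GI50 denotes the concentration required for 50% inhibition of growth.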 Active and inactive are the calls of the source. Rule as the data show it: active = GI50 up to about 1.1 µM and inactive = higher. Some results are limits rather than exact numbers.

For `N=C1c2ccccc2C(=O)c2c(NCCNCCO)ccc(O)c21`, the GI50 (usually the concentration at which growth is held to half of that of the control) was 9.02 µM (inactive) with HT-29; 11.9 µM (inactive) in the experiment on TK-10; 6.3 µM (inactive) with A549; 0.579 µM (active) in the experiment on SR; 7.03 µM (inactive) in the experiment on SK-MEL-5; 3.1 µM (inactive) in the experiment with SW-620. The GI50 with SN12C was 4.83 µM (inactive); in the experiment on SF-295 it was 12.5 µM (inactive); with K562 it was 3.64 µM (inactive); in the experiment on OVCAR-4 it was 23.4 µM (inactive); in the experiment on NCI-H226, 9.84 µM (inactive); with A498, 13.7 µM (inactive). In addition, the GI50 was 4.73 µM (inactive) in the experiment on SF-539, 12 µM (inactive) in the experiment on EKVX, 1.88 µM (inactive) in the experiment on MOLT-4 and 9.62 µM (inactive) in the experiment with CCRF-CEM.
For the molecule `Cc1ccc(S(=O)(=O)Oc2nc3nc4ccccc4nc3nc2OS(=O)(=O)c2ccc(C)cc2)cc1`, the GI50 in the experiment with HT-29, in the experiment on TK-10, with MDA-MB-231, in the experiment on A549, in the experiment with MCF7 and in the experiment on SK-MEL-5 was > 100 µM (inactive) in each case. Also, the GI50 in the experiment with SN12C, in the experiment on SF-295, in the experiment on BT-549, in the experiment on DU-145, in the experiment on NCI-H226 and in the experiment with A498 was > 100 µM (inactive) in each case. Further, the values for the GI50 with SF-539, with EKVX and in the experiment with CCRF-CEM were > 100 µM (inactive), 13.6 µM (inactive) and 5.28 µM (inactive), respectively.
Turning to `O=C1c2ccccc2NC(=O)C2C1C(c1ccccc1)CC2(O)c1ccccc1` (stereo not drawn), the GI50 with HT-29 was 26 µM (inactive); in the experiment with TK-10 it was 39.3 µM (inactive); with MDA-MB-231, 34.4 µM (inactive); in the experiment on A549, 30 µM (inactive); in the experiment on MCF7, > 100 µM (inactive); with SR, 70.3 µM (inactive). Also, the GI50 was 84.5 µM (inactive) in the experiment on SK-MEL-5; 50.8 µM (inactive) in the experiment with SW-620; > 100 µM (inactive) in the experiment with SN12C; 43.6 µM (inactive) in the experiment with SF-295; 17.7 µM (inactive) in the experiment on OVCAR-4; > 100 µM (inactive) in the experiment with DU-145. The GI50 is > 100 µM (inactive) in the experiment on A498; > 100 µM (inactive) with SF-539; > 100 µM (inactive) in the experiment with EKVX; 15.4 µM (inactive) with MOLT-4; 27.7 µM (inactive) in the experiment on CCRF-CEM.
Regarding `C=CCn1c(=O)c2ccccc2[n+]2c(-c3cccc([N+](=O)[O-])c3)csc12`, the GI50 in the experiment on HT-29 was 30.8 µM (inactive); with TK-10, 38.4 µM (inactive); in the experiment with MDA-MB-231, 87.3 µM (inactive); in the experiment on A549, 42.2 µM (inactive); in the experiment on MCF7, 42.9 µM (inactive); in the experiment on SR, 17 µM (inactive). The GI50 is 11.4 µM (inactive) with SK-MEL-5; > 100 µM (inactive) in the experiment on SW-620; > 100 µM (inactive) in the experiment with SN12C; 53.1 µM (inactive) in the experiment with SF-295; 28.4 µM (inactive) with K562; 64.4 µM (inactive) with OVCAR-4. Besides, the GI50 in the experiment on DU-145 was 50.4 µM (inactive); with NCI-H226, 12.5 µM (inactive); in the experiment with A498, 31.6 µM (inactive); in the experiment on SF-539, 96.8 µM (inactive); in the experiment with EKVX, 33.7 µM (inactive); with MOLT-4, 24.7 µM (inactive). Besides, the GI50 in the experiment on CCRF-CEM is 27.5 µM (inactive).
Regarding `COC1CC(OC(=O)c2ccccc2)C(OC(=O)c2ccccc2)C(C)O1` (stereo not drawn), the GI50 with TK-10, in the experiment on MDA-MB-231, in the experiment with A549, in the experiment on MCF7, in the experiment on SR and in the experiment with SK-MEL-5 was > 100 µM (inactive) each time. Moreover, the GI50 was > 100 µM (inactive) in the experiment on SW-620; > 100 µM (inactive) in the experiment with SN12C; > 100 µM (inactive) in the experiment with SF-295; > 100 µM (inactive) with K562; > 100 µM (inactive) with DU-145; 85.1 µM (inactive) in the experiment on NCI-H226. Besides, the GI50 in the experiment with A498, with SF-539, with EKVX, with MOLT-4 and in the experiment on CCRF-CEM was > 100 µM (inactive) throughout.
Regarding `N#Cc1ccc(Oc2nc3ccccc3nc2C(=O)O)cc1`, the GI50 in the experiment with HT-29, with TK-10, in the experiment on MDA-MB-231, in the experiment with A549, in the experiment with SR and in the experiment on SK-MEL-5 was > 100 µM (inactive) each time. Moreover, the GI50 with SW-620, in the experiment on SF-295, with K562, in the experiment with OVCAR-4, in the experiment on BT-549 and with DU-145 was > 100 µM (inactive) each time. For the same molecule, the GI50 with NCI-H226, in the experiment on A498, with EKVX, with MOLT-4 and with CCRF-CEM was > 100 µM (inactive) in each case.
Consider `C=C(Cl)C(Br)(CBr)CCC(Br)C(C)(C)Br` (stereo not drawn), for which the GI50 in the experiment with HT-29 was 3.33 µM (inactive); in the experiment with TK-10, > 10 µM (inactive); with MDA-MB-231, 1.62 µM (inactive); in the experiment with A549, 6.87 µM (inactive); in the experiment with MCF7, 2.11 µM (inactive); in the experiment on SK-MEL-5, > 10 µM (inactive). The GI50 with SW-620 was 2.7 µM (inactive); with SN12C, 7.73 µM (inactive); in the experiment with SF-295, > 10 µM (inactive); in the experiment on K562, 1.88 µM (inactive); with OVCAR-4, 3.99 µM (inactive); in the experiment on BT-549, > 10 µM (inactive). In addition, the GI50 with DU-145 is > 10 µM (inactive); with NCI-H226, > 10 µM (inactive); with A498 it was > 10 µM (inactive); with SF-539, 2.54 µM (inactive); with EKVX it was > 10 µM (inactive); in the experiment on MOLT-4, 1.08 µM (active). In addition, the GI50 in the experiment on CCRF-CEM is 3.89 µM (inactive).
For the molecule `NC(=S)c1cccc(C2Nc3ccccc3O2)c1` (stereo not drawn), the GI50 is 92.9 µM (inactive) in the experiment on HT-29; 81.1 µM (inactive) in the experiment with TK-10; 6.25 µM (inactive) in the experiment with MDA-MB-231; 41.5 µM (inactive) with A549; 56.9 µM (inactive) in the experiment on MCF7; > 100 µM (inactive) in the experiment with SR. The GI50 was 23.5 µM (inactive) in the experiment on SK-MEL-5; 75.7 µM (inactive) in the experiment on SW-620; < 0.01 µM (active) in the experiment with SN12C; 68.9 µM (inactive) in the experiment with SF-295; 30.5 µM (inactive) in the experiment with K562; 31.5 µM (inactive) in the experiment on OVCAR-4. In addition, the GI50 in the experiment with DU-145 was > 100 µM (inactive); in the experiment with NCI-H226, 12.1 µM (inactive); in the experiment with SF-539, 61.1 µM (inactive); in the experiment with EKVX, 0.019 µM (active); in the experiment with MOLT-4, 41.7 µM (inactive).
As to `Clc1cccc(Cl)c1C1SCc2nc3cc4ccccc4cc3n21` (stereo not drawn), the GI50 in the experiment on HT-29, in the experiment on TK-10, with MDA-MB-231, in the experiment with A549, in the experiment on MCF7 and in the experiment with SK-MEL-5 was > 100 µM (inactive) in each case. Also, the GI50 with SW-620, in the experiment on SN12C, in the experiment with SF-295, in the experiment on K562, in the experiment with OVCAR-4 and in the experiment with BT-549 was > 100 µM (inactive) in each case. In addition, the GI50 in the experiment on DU-145, in the experiment with NCI-H226, in the experiment on EKVX, in the experiment with MOLT-4 and in the experiment on CCRF-CEM was > 100 µM (inactive) throughout.
Regarding `O=S(=O)(O)c1ccc2c(/N=N/c3cccc4ccccc34)c(O)ccc2c1`, the GI50 in the experiment on HT-29, in the experiment with TK-10, in the experiment on MDA-MB-231, in the experiment on A549, in the experiment with SR and in the experiment with SK-MEL-5 was > 100 µM (inactive) in each case. Further, the GI50 was > 100 µM (inactive) with SW-620; > 100 µM (inactive) in the experiment on SN12C; 39.1 µM (inactive) in the experiment with SF-295; > 100 µM (inactive) in the experiment with K562; > 100 µM (inactive) in the experiment on OVCAR-4; > 100 µM (inactive) in the experiment on BT-549. Also, the GI50 in the experiment on DU-145, in the experiment with NCI-H226, with A498, with EKVX, in the experiment on MOLT-4 and with CCRF-CEM was > 100 µM (inactive) in each case.
Regarding `C[n+]1c(-c2ccc(/C=N/NC(=N)N/N=C/c3ccc(-c4cn5cc(Cl)ccc5[n+]4C)cc3)cc2)cn2cc(Cl)ccc21`, the GI50 in the experiment with HT-29, with TK-10, in the experiment with MDA-MB-231, in the experiment on A549, in the experiment with MCF7 and in the experiment on SR was > 100 µM (inactive) in each case. Further, the GI50 in the experiment on SK-MEL-5, in the experiment on SW-620, in the experiment on SN12C, in the experiment on SF-295, with K562 and in the experiment with OVCAR-4 was > 100 µM (inactive) in each case. For the same molecule, the GI50 with SF-539, in the experiment with EKVX, in the experiment on MOLT-4 and with CCRF-CEM was > 100 µM (inactive) throughout.
